Results reported in US8071290B2, “Hypermethylation of GATA-4 and GATA-5 transcription factor genes in cancer” (Johns Hopkins University School of Medicine, priority 2003, dated 2011).
Marks after values point to notes of the source that are not given here.

Experiments:
Assay type in all cases: cell-based, human
[1] = tested on: RKO colon cancer cell line; experiment: DAC treatment, gene expression by RT-PCR in RKO; parameters: key to GATA-5 expression (Exp, A = DAC treatment) / GATA-6 expression (Exp, A = DAC treatment) / TFF1 expression (Exp, A = DAC treatment) / TFF2 expression (Exp, A = DAC treatment) / TFF3 expression (Exp, A = DAC treatment) / Inhibin α expression (Exp, A = DAC treatment) / Dab2 expression (Exp, A = DAC treatment) / GATA-4 expression (Exp, A = DAC treatment): −: Undetectable level; +: detectable level of expression, by RT-PCR; ++: increased expression level from +basal level
Procedure: (§1) The CRC and Az521 cell lines were grown in DMEM, MEM or McCoy's medium supplemented with 10% fetal bovine serum, penicillin and streptomycin. For demethylation studies, cells were treated daily with […] 5-aza-2′deoxycytidine (DAC; Sigma Chemical Co.; St. Louis Mo.) for 48 hr (41). Az521 and HCT116 cells also were treated with the histone deacetylase inhibitor, TSA (Wako), alone, or with a combination of DAC plus TSA (41; 6). Total RNA was isolated using the TRIZOL reagent (Invitrogen Corp.; Carlsbad Calif.).
(§2) For RT-PCR, 2 μg of total RNA was reverse transcribed using the SUPERSCRIPT reverse transcription kit (Invitrogen); all genes were amplified with multiple cycle numbers (28-35 cycles) for obtaining semi-quantitative differences in their expression levels. Primer pairs for GATA-1 to GATA-6 and for the GATA-5 target genes are shown in Table 2 (see, also, Bai et al., Mol. Carcinog. 28:184-188, 2000, which is incorporated herein by reference). Annealing was performed at the indicated temperatures, and PCR was performed for the indicated number of cycles (Table 2, below). PCR conditions were as follows: first denature, 95° C., 5 min; denature, 95° C., 1 min; anneal, temperature shown in Table 2 (° C.), 1 min; extension, 72° C., 1 min; final extension, 72° C., 10 min.
(§3) GATA-4, GATA-5and GATA-6 expression was examined in gastrointestinal cancer cell lines. GATA-4, GATA-5 and GATA-6 expression levels were examined by RT-PCR in seven cancer cell lines (colon cancer cell lines RKO, DLD1, HCT116, HT29, LoVo, and SW480; and gastric cancer cell line AZ521) with or without (mock) treatment with 5′-aza-2′-deoxycytidine (DAC) and in normal colonic mucosa (NC) and peripheral blood lymphocytes (PBL). GAPDH expression was used for an internal loading control for the RT-PCR. Gastric cancer cells, AZ521, were treated with low dose DAC alone, TSA alone, or a combination of these two drugs (A/T), or were mock treated, and examined by RT-PCR. GATA-4 and GATA-5 expression were examined in wild type (WT) HCT116 colon cancer cells, and two clones each of these cells in which both alleles of DNA methyltransferase 1 (DNMTI-KO), DNMT 3b (DNMT3b-KO), or both DNMTs were knocked out (21). PCR products recognizing unmethylated and methylated CpG sites were analyzed in 2.5% agarose gels stained by ethidium bromide.

[2] = tested on: DLD1 colon cancer cell line; experiment: DAC treatment, gene expression by RT-PCR in DLD1; parameters: key: −: Undetectable level; +: detectable level of expression, by RT-PCR; ++: increased expression level from +basal level; conditions: 5 pM DAC daily for 48 hr
Procedure: as §1, §2, §3

[3] = tested on: HCT116 colon cancer cell line; experiment: DAC treatment, gene expression by RT-PCR in HCT116; parameters: key to GATA-5 expression (Exp, A = DAC treatment) / GATA-6 expression (Exp, A = DAC treatment) / TFF1 expression (Exp, A = DAC treatment) / TFF2 expression (Exp, A = DAC treatment) / TFF3 expression (Exp, A = DAC treatment) / Inhibin α expression (Exp, A = DAC treatment) / Dab2 expression (Exp, A = DAC treatment) / GATA-4 expression (Exp, A = DAC treatment): −: Undetectable level; +: detectable level of expression, by RT-PCR; ++: increased expression level from +basal level
Procedure: as §1, §2, §3

[4] = tested on: HT29 colon cancer cell line; experiment: DAC treatment, gene expression by RT-PCR in HT29; parameters: key: −: Undetectable level; +: detectable level of expression, by RT-PCR; ++: increased expression level from +basal level; conditions: 5 pM DAC daily for 48 hr
Procedure: as §1, §2, §3

[5] = tested on: LoVo colon cancer cell line; experiment: DAC treatment, gene expression by RT-PCR in LoVo; parameters: key: −: Undetectable level; +: detectable level of expression, by RT-PCR; ++: increased expression level from +basal level; conditions: 5 pM DAC daily for 48 hr
Procedure: as §1, §2, §3

[6] = tested on: SW480 colon cancer cell line; experiment: DAC treatment, gene expression by RT-PCR in SW480; parameters: key: −: Undetectable level; +: detectable level of expression, by RT-PCR; ++: increased expression level from +basal level; conditions: 5 pM DAC daily for 48 hr
Procedure: as §1, §2, §3

[7] = tested on: AZ521 gastric cancer cell line; experiment: DAC treatment, gene expression by RT-PCR in AZ521; parameters: key to GATA-4 expression (Exp, A = DAC treatment) / GATA-5 expression (Exp, A = DAC treatment) / GATA-6 expression (Exp, A = DAC treatment) / TFF1 expression (Exp, A = DAC treatment) / TFF2 expression (Exp, A = DAC treatment) / TFF3 expression (Exp, A = DAC treatment) / Inhibin α expression (Exp, A = DAC treatment) / Dab2 expression (Exp, A = DAC treatment): −: Undetectable level; +: detectable level of expression, by RT-PCR; ++: increased expression level from +basal level
Procedure: as §1, §2, §3

[8] = tested on: colon cancer cell lines RKO, DLD1, HCT116, HT29, LoVo, and SW480; and gastric cancer cell line AZ521; experiment: DAC treatment of the seven cancer cell lines, RT-PCR
Procedure: as §1, §2
as §3, with “GATA-4 and GATA-5 expression were examined in wild type (WT) HCT116 colon cancer cells, and two clones each of these cells in which both alleles of DNA methyltransferase 1 (DNMTI-KO), DNMT 3b (DNMT3b-KO), or both DNMTs were knocked out (21).” left out

[9] = tested on: Gastric cancer cells, AZ521; experiment: TSA alone or low dose DAC plus TSA, RT-PCR of GATA-4 and GATA-5
Procedure: as §1
as §2, with “PCR conditions were as follows: first denature, 95° C., 5 min; denature, 95° C., 1 min; anneal, temperature shown in Table 2 (° C.), 1 min; extension, 72° C., 1 min; final extension, 72° C., 10 min.” left out
GATA-4, GATA-5and GATA-6 expression was examined in gastrointestinal cancer cell lines. […] PCR products recognizing unmethylated and methylated CpG sites were analyzed in 2.5% agarose gels stained by ethidium bromide.

[10] = 5 pM DAC daily for 48 hr, RT-PCR
[11] = HCT116, 5 pM DAC daily for 48 hr, RT-PCR
[12] = AZ521, 5 pM DAC daily for 48 hr, RT-PCR

Nc1ncn([C@H]2C[C@H](O)[C@@H](CO)O2)c(=O)n1 [DAC, 5-aza-2′-deoxycytidine]
−: TFF2 expression (Exp, A = DAC treatment) [1, 10] | TFF2 expression (Exp, A = DAC treatment) [7, 12]
reactivated: Dab2 reactivation following DAC treatment ([1]; gene basally silent)
activated: activation of each downstream gene (TFF1, TFF2, TFF3, inhibin α, Dab2) ([8]; DAC, virtually every cell line in which the gene lacked basal expression)
++^4): GATA-4 expression (Exp, A = DAC treatment) [5]
did not re-express: TFF2 re-expression after DAC treatment [1] | TFF2 re-expression after DAC treatment ([7]; Az521)
further increased: low basal expression of TFF1, TFF3, inhibin α after DAC ([8]; DAC, in many instances)
+: Dab2 expression (Exp, A = DAC treatment) [1, 10] | GATA-4 expression (Exp, A = DAC treatment) [1, 10] | GATA-5 expression (Exp, A = DAC treatment) [1, 10] | GATA-6 expression (Exp, A = DAC treatment) [1, 10] | Inhibin α expression (Exp, A = DAC treatment) [1, 10] | TFF1 expression (Exp, A = DAC treatment) [1, 10] | TFF3 expression (Exp, A = DAC treatment) [1, 10] | Dab2 expression (Exp, A = DAC treatment) [2] | GATA-4 expression (Exp, A = DAC treatment) [2] | GATA-5 expression (Exp, A = DAC treatment) [2] | GATA-6 expression (Exp, A = DAC treatment) [2] | Inhibin α expression (Exp, A = DAC treatment) [2] | TFF2 expression (Exp, A = DAC treatment) [2] | TFF3 expression (Exp, A = DAC treatment) [2] | Dab2 expression (Exp, A = DAC treatment) [3, 11] | GATA-4 expression (Exp, A = DAC treatment) [3, 11] | GATA-5 expression (Exp, A = DAC treatment) [3, 11] | GATA-6 expression (Exp, A = DAC treatment) [3, 11] | Inhibin α expression (Exp, A = DAC treatment) [3, 11] | TFF1 expression (Exp, A = DAC treatment) [3, 11] | TFF2 expression (Exp, A = DAC treatment) [3, 11] | TFF3 expression (Exp, A = DAC treatment) [3, 11] | Dab2 expression (Exp, A = DAC treatment) [4] | GATA-4 expression (Exp, A = DAC treatment) [4] | GATA-5 expression (Exp, A = DAC treatment) [4] | GATA-6 expression (Exp, A = DAC treatment) [4] | TFF2 expression (Exp, A = DAC treatment) [4] | TFF3 expression (Exp, A = DAC treatment) [4] | Dab2 expression (Exp, A = DAC treatment) [5] | GATA-6 expression (Exp, A = DAC treatment) [5] | TFF2 expression (Exp, A = DAC treatment) [5] | Dab2 expression (Exp, A = DAC treatment) [6] | GATA-4 expression (Exp, A = DAC treatment) [6] | GATA-5 expression (Exp, A = DAC treatment) [6] | GATA-6 expression (Exp, A = DAC treatment) [6] | TFF1 expression (Exp, A = DAC treatment) [6] | TFF2 expression (Exp, A = DAC treatment) [6] | TFF3 expression (Exp, A = DAC treatment) [6] | Dab2 expression (Exp, A = DAC treatment) [7, 12] | GATA-4 expression (Exp, A = DAC treatment) [7, 12] | GATA-5 expression (Exp, A = DAC treatment) [7, 12] | GATA-6 expression (Exp, A = DAC treatment) [7, 12] | TFF1 expression (Exp, A = DAC treatment) [7, 12] | TFF3 expression (Exp, A = DAC treatment) [7, 12]
++: TFF1 expression (Exp, A = DAC treatment) [2] | TFF1 expression (Exp, A = DAC treatment) [4] | GATA-5 expression (Exp, A = DAC treatment) [5] | Inhibin α expression (Exp, A = DAC treatment) [5] | TFF1 expression (Exp, A = DAC treatment) [5] | TFF3 expression (Exp, A = DAC treatment) [5] | Inhibin α expression (Exp, A = DAC treatment) [6] | Inhibin α expression (Exp, A = DAC treatment) [7, 12]
re-expressed: re-expression of each basally silent GATA gene, except GATA-1 ([8]; DAC treatment, RT-PCR)
readily activated: TFF2 activation by DAC ([3]; HCT116, TFF2 promoter present)

CC(/C=C/C(=O)NO)=C\[C@@H](C)C(=O)c1ccc(N(C)C)cc1 [TSA]
synergistic: reactivating expression of the silenced GATA-4 and GATA-5 genes ([9]; TSA applied with a low dose of DAC)
failed to reactivate: reactivation of the silenced GATA-4 and GATA-5 genes ([9]; TSA alone)
